Laboratory results reported in patent US12391676B2 (H. LEE MOFFITT CANCER CENTER AND RESEARCH INSTITUTE, INC., priority 2018, dated 2025).

Legend:
MM1.S cells = assay: Antiproliferative activity, MM1.S cells; format: cell-based; details: Homo sapiens, Table 2, read-out: GI50 (MM1S)
Method: Cellular activity of promising compounds is assessed using MM.1S and MV4-11 AML cells using c-Myc levels as biomarker (6-12 hr treatment) and antiproliferative activity (48-72 hr treatment) as described (Ciceri et al., Dual kinase-bromodomain inhibitors for rationally designed polypharmacology. Nat Chem Biol 2014).

BRD4 = BRD4 (Homo sapiens (Human), UniProt O60885); assay: BRD4 DSF thermal shift (ΔTm); format: binding; details: for BRD4 DSF (ΔTm): Table 2

SMILES	GI50 (MM1.S cells) [nM]	BRD4 DSF (ΔTm) (BRD4) [°C]	DSF ΔTm (BRD4; Table 1) [°C]
Cc1cnc(Nc2ccc(N3CCN(C)CC3)c(F)c2)cc1Nc1ccc(Cl)c(NS(=O)(=O)C(C)(C)C)c1 [MA9-036, N-(2-Chloro-5-((2-((3-fluoro-4-(4-methylpiperazin-1-yl)phenyl)amino)-5-methylpyridin-4-yl)amino)phenyl)-2-methylpropane-2-sulfonamide]	3120		
Cc1cnc(Nc2cc(F)c(N3CCN(C)CC3)c(F)c2)cc1Nc1ccc(Cl)c(NS(=O)(=O)C(C)(C)C)c1 [MA9-037, N-(2-Chloro-5-((2-((3,5-difluoro-4-(4-methylpiperazin-1-yl)phenyl)amino)-5-methylpyridin-4-yl)amino)phenyl)-2-methylpropane-2-sulfonamide·bisformate]	2830		
Cc1cnc(Nc2ccc(C3CCN(C)CC3)c(F)c2)cc1Nc1ccc2c(c1)N(S(=O)(=O)C(C)(C)C)CC2 [MA9-064, N4-(1-(Tert-butylsulfonyl)indolin-6-yl)-N2-(3-fluoro-4-(1-methylpiperidin-4-yl)phenyl)-5-methylpyridine-2,4-diamine]	1600	8.2	
Cc1cnc(Nc2cc(F)c(C3CCN(C)CC3)c(F)c2)nc1Nc1cc(NS(=O)(=O)C(C)(C)C)ncn1 [MA11-009, N-(6-((2-((3,5-difluoro-4-(1-methylpiperidin-4-yl)phenyl)amino)-5-methylpyrimidin-4-yl)amino)pyrimidin-4-yl)-2-methylpropane-2-sulfonamide]		1.1	
Cc1cnc(Nc2ccc(C3=CCN(C)CC3)c(F)c2)nc1Nc1ccc(Cl)c(NS(=O)(=O)C(C)(C)C)c1 [PN1-101, N-(2-Chloro-5-((2-((3-fluoro-4-(1-methyl-1,2,3,6-tetrahydropyridin-4-yl)phenyl)amino)-5-methylpyrimidin-4-yl)amino)phenyl)-2-methylpropane-2-sulfonamide]	100	13.5	
Cc1cnc(Nc2cc(F)c(C3CCN(C)CC3)cc2F)nc1Nc1ccc(Cl)c(NS(=O)(=O)C(C)(C)C)c1 [PN1-102, N-(2-Chloro-5-((2-((2,5-difluoro-4-(1-methylpiperidin-4-yl)phenyl)amino)-5-methylpyrimidin-4-yl)amino)phenyl)-2-methylpropane-2-sulfonamide]	320	11.4	
CN1CCC(c2ccc(Nc3ncc(C(F)F)c(Nc4ccc(Cl)c(NS(=O)(=O)C(C)(C)C)c4)n3)cc2F)CC1 [PN1-117, N-(2-Chloro-5-((5-(difluoromethyl)-2-((3-fluoro-4-(1-methylpiperidin-4-yl)phenyl)amino)pyrimidin-4-yl)amino)phenyl)-2-methylpropane-2-sulfonamide]	240	12.7	
CN1CCC(c2ccc(Nc3ncc(I)c(Nc4ccc(Cl)c(NS(=O)(=O)C(C)(C)C)c4)n3)cc2F)CC1 [PN1-118, N-(2-Chloro-5-((2-((3-fluoro-4-(1-methylpiperidin-4-yl)phenyl)amino)-5-iodopyrimidin-4-yl)amino)phenyl)-2-methylpropane-2-sulfonamide]	210	11.6	
Cc1cc(Nc2ncc(C)c(Nc3ccc(Cl)c(NS(=O)(=O)C(C)(C)C)c3)n2)c(F)cc1C1CCN(C)CC1 [PN1-119, N-(2-Chloro-5-((2-((2-fluoro-5-methyl-4-(1-methylpiperidin-4-yl)phenyl)amino)-5-methylpyrimidin-4-yl)amino)phenyl)-2-methylpropane-2-sulfonamide]	390		
CN1CCC(c2ccc(Nc3ncc([N+](=O)[O-])c(Nc4ccc(Cl)c(NS(=O)(=O)C(C)(C)C)c4)n3)cc2F)CC1 [PN1-132, N-(2-Chloro-5-((2-((3-fluoro-4-(1-methylpiperidin-4-yl)phenyl)amino)-5-nitropyrimidin-4-yl)amino)phenyl)-2-methylpropane-2-sulfonamide]	360	12.8	
CN1CCC(c2ccc(Nc3ncc(C(N)=O)c(Nc4ccc(Cl)c(NS(=O)(=O)C(C)(C)C)c4)n3)cc2F)CC1 [PN1-134, 4-((4-Chloro-3-((1,1-dimethylethyl)sulfonamido)phenyl)amino)-2-((3-fluoro-4-(1-methylpiperidin-4-yl)phenyl)amino)pyrimidine-5-carboxamide]	580	13.7	
CN1CCC(c2ccc(Nc3ncc(C#N)c(Nc4ccc(Cl)c(NS(=O)(=O)C(C)(C)C)c4)n3)cc2F)CC1 [PN1-138, N-(2-Chloro-5-((5-cyano-2-((3-fluoro-4-(1-methylpiperidin-4-yl)phenyl)amino)pyrimidin-4-yl)amino)phenyl)-2-methylpropane-2-sulfonamide]	890	7.6	
CN1CCC(c2ccc(Nc3ncc(N)c(Nc4ccc(Cl)c(NS(=O)(=O)C(C)(C)C)c4)n3)cc2F)CC1 [PN1-140, N-(5-((5-Amino-2-((3-fluoro-4-(1-methylpiperidin-4-yl)phenyl)amino)pyrimidin-4-yl)amino)-2-chlorophenyl)-2-methylpropane-2-sulfonamide]	1800	9.5	
CN1CCC(c2ccc(Nc3ncc(-c4cnn(C)c4)c(Nc4ccc(Cl)c(NS(=O)(=O)C(C)(C)C)c4)n3)cc2F)CC1 [PN1-145, N-(2-Chloro-5-((2-((3-fluoro-4-(1-methylpiperidin-4-yl)phenyl)amino)-5-(1-methyl-1H-pyrazol-4-yl)pyrimidin-4-yl)amino)phenyl)-2-methylpropane-2-sulfonamide]	220	7.1	
Cc1cnc(Nc2cc(F)ncn2)nc1Nc1ccc(Cl)c(NS(=O)(=O)C(C)(C)C)c1 [PN2-064, N-(2-Chloro-5-((2-((6-fluoropyrimidin-4-yl)amino)-5-methylpyrimidin-4-yl)amino)phenyl)-2-methylpropane-2-sulfonamide]		1.1	
Cc1cnc(Nc2ccc(C3CCN(C)CC3)cn2)nc1Nc1ccc(Cl)c(NS(=O)(=O)C(C)(C)C)c1 [PN2-081, N-(2-Chloro-5-((5-methyl-2-((5-(1-methylpiperidin-4-yl)pyridin-2-yl)amino)pyrimidin-4-yl)amino)phenyl)-2-methylpropane-2-sulfonamide]		12.3	
Cc1cnc(Nc2cc(F)c(C3CCNCC3)cn2)nc1Nc1ccc(Cl)c(NS(=O)(=O)C(C)(C)C)c1.Cl [PN2-084, N-(2-Chloro-5-((2-((4-fluoro-5-(piperidin-4-yl)pyridin-2-yl)amino)-5-methylpyrimidin-4-yl)amino)phenyl)-2-methylpropane-2-sulfonamide hydrochloride]		14.5	
Cc1cnc(Nc2ccc(N3CCN(C)CC3)cn2)nc1Nc1ccc(Cl)c(NS(=O)(=O)C(C)(C)C)c1 [PN2-091, N-(2-Chloro-5-((5-methyl-2-((5-(4-methylpiperazin-1-yl)pyridin-2-yl)amino)pyrimidin-4-yl)amino)phenyl)-2-methylpropane-2-sulfonamide]		11.5	
Cc1cnc(Nc2ccc(C3CCN(C)CC3)c(F)n2)nc1Nc1ccc(Cl)c(NS(=O)(=O)C(C)(C)C)c1 [PN2-102, N-(2-Chloro-5-((2-((6-fluoro-5-(1-methylpiperidin-4-yl)pyridin-2-yl)amino)-5-methylpyrimidin-4-yl)amino)phenyl)-2-methylpropane-2-sulfonamide]	109	13.0	
Cc1cnc(Nc2cc(F)c(C3CCN(C)CC3)cn2)nc1Nc1cccc(NS(=O)(=O)C(C)(C)C)c1 [PN2-103, N-(3-((2-((4-Fluoro-5-(1-methylpiperidin-4-yl)pyridin-2-yl)amino)-5-methylpyrimidin-4-yl)amino)phenyl)-2-methylpropane-2-sulfonamide]		12.4	
Cc1cnc(Nc2ccc(C3CCN(C)CC3)c(F)n2)nc1Nc1ccc(F)c(NS(=O)(=O)C(C)(C)C)c1 [PN2-116, N-(2-Fluoro-5-((2-((6-fluoro-5-(1-methylpiperidin-4-yl)pyridin-2-yl)amino)-5-methylpyrimidin-4-yl)amino)phenyl)-2-methylpropane-2-sulfonamide]	104	12.1	
Cc1cnc(Nc2ccc(C3CCN(C)CC3)c(F)n2)nc1Nc1cccc(NS(=O)(=O)C(C)(C)C)c1 [PN2-117, N-(3-((2-((6-Fluoro-5-(1-methylpiperidin-4-yl)pyridin-2-yl)amino)-5-methylpyrimidin-4-yl)amino)phenyl)-2-methylpropane-2-sulfonamide]	153	11.0	
Cc1cnc(Nc2ccc(C3CCN(C)CC3)c(F)c2)nc1Nc1ccc(F)c(NS(=O)(=O)C(C)(C)C)c1 [PN2-118, N-(2-Fluoro-5-((2-((3-fluoro-4-(1-methylpiperidin-4-yl)phenyl)amino)-5-methylpyrimidin-4-yl)amino)phenyl)-2-methylpropane-2-sulfonamide]	83	13.0	
Cc1cnc(Nc2ccc(C3CCN(C)CC3)cc2)cc1Nc1cccc(NS(=O)(=O)C(C)(C)C)c1 [SY3-030, 2-Methyl-N-(3-((5-methyl-2-((4-(1-methylpiperidin-4-yl)phenyl)amino)pyridin-4-yl)amino)phenyl)propane-2-sulfonamide]		6.3	
Cc1cnc(Nc2ccc(C3CCN(C)CC3)c(F)c2)cc1Nc1ccc2c(c1)N(S(=O)(=O)C(C)(C)C)CC2 [drawing 16]			8.9 ± 0.2
